Test system: human umbilical vein endothelial cells (HUVECs)
Conditions: confluent HUVECs, single bolus of physiologic levels of H2O2, 5 hr
Procedure: HUVECs were treated with the indicated concentrations of H2O2 for 5 hours. The cells were harvested and the proteoglycans isolated and analyzed by Western blotting for lumican and biglycan.
Since lumican proteoglycan is deposited at enhanced levels in atherosclerosis-prone arteries, it is possible that lumican proteoglycan is generated by cultured human umbilical vein endothelial cells (HUVECs). The production of lumican proteoglycan by cultured human umbilical vein endothelial cells (HUVECs) was examined in vitro. Confluent HUVECs in complete media with serum and growth supplements were treated with a single bolus addition of varying concentrations of H2O2. After 5 hr the cells were washed and harvested as described previously (Kattapuram et al. (2005) Journal of Biological Chemnistry 280, 15340-15347). The proteoglycans were then extracted, isolated and analyzed by immunoblotting for lumican and biglycan.

SMILES: OO [H2O2, Hydrogen Peroxide]
- upregulation of biglycan (immunoblot): no upregulation
- upregulation of Lumican-PG100 (immunoblot) (vs resting conditions): substantial upregulation

From US8236301B2, “Lumican proteoglycan in the diagnosis and treatment of atherosclerosis” (The General Hospital Corporation, priority 2005, dated 2012)
